These results are taken from patent US8912236B2 (Alcon Research, Ltd., priority 2009, dated 2014).

For orientation: IC50 means the midpoint of a concentration-inhibition curve. Read a high IC50 as lower potency.

Bounds are passed on as bounds.

For the assay, the system named is FGFR. Description: Kinase inhibition, cell-free enzymatic assay. In kind it is biochemical. Particulars: 1 mM ATP.

Compound `Cc1ccc(F)c(NC(=O)Nc2ccc(-c3cccc4[nH]nc(N)c34)cc2)c1` [RTK Inhibitor, N-[4-(3-amino-1H-indazol-4-yl)phenyl]-N′-(2-fluoro-5-methylphenyl) urea] had an IC50 of more than 12.5 µM.
